What all share (assay type): cell-based, mouse
Series [1] deals with MEFs undergoing nuclear reprogramming. As to the kind of experiment: Reprogramming efficiency by FACS analysis of SSEA-1 expression. Conditions: vehicle 27.8±3.1, mean±SEM, n=3. From the text: (§1) Mouse embryonic fibroblasts (MEFs) were transduced with HIV-based viral vectors encoding OCT3/4, SOX2, and KLF4 either in the presence (4F) or absence of c-MYC (3F) to produce iPS clones that met pluripotent criteria including expression of stem cell markers, embryoid body differentiation, teratoma formation, diploid aggregation, and contribution to organogenesis (Martinez-Fernandez et al., Circ. Res., 105:648-656 (2009); Nelson et al., Clin. Transl. Sci., 2:118-126 (2009); and Nelson et al., Circulation, 120:408-416 (2009)). Alternatively, iPS cells were derived with a viPS (Open Biosystems) kit. iPS cells were induced and maintained in ES Cell qualified DMEM supplemented with 15% FBS, 25 mM glucose, 2 mM Glutamax (Invitrogen), and 1 mM sodium pyruvate. In reprogramming experiments, media was supplemented with 0.25 or 1.25 mM 2DG (Sigma), 100 μM BrPA (Sigma) or 5 mM DCA (Sigma). Reprogramming efficiency was quantified using an alkaline phosphatase staining kit (Stemgent) or FACS analysis of SSEA-1 expression (Millipore) on a LSR II flow cytometer.

Series [2] deals with MEFs. As to the kind of experiment: 1H NMR metabolomic footprinting of extracellular metabolites of treated MEFs. Conditions: control experiments; 1.25 mM 2-DG, 100 μM BrPA, 5 mM DCA versus vehicle; n=3. How it is done:
For footprinting of extracellular metabolites, 540 μL of media collected following 24 hours of culture was added to 60 μL of D2O (Sigma) containing 5 mM sodium 3-(trimethylsilyl)propionate-2,2,3,3-d4 (TSP) (Sigma) for chemical shift reference and 81.84 mM formate (Sigma) for peak quantification reference as described elsewhere (Turner et al., Stem Cells, 26:1547-1555 (2008)). Briefly, MEFs, iPS cells, and R1ESC were maintained in DMEM containing 15% FBS, pyruvate, L-glutamine, nonessential amino acids, 2-mercaptoethanol, and LIF in 6 well plates at 37° C. in a humidified incubator with 95% air and 5% CO2 (Martinez-Fernandez et al., Circ Res., 25; 105(7):648-56 (2009)). […]
For intracellular metabolite fingerprinting, neutralized perchloric acid extracts were concentrated with a SpeedVac and suspended in 600 μL of 100 mM phosphate buffer (pH 7.0) in D2O (Sigma) containing 0.5 mM TSP as described elsewhere (Beckonert et al., Nat. Protoc., 2:2692-2703 (2007)). […] Following Fourier transformation, spectra were autophased with metabonomic phase correction, baseline corrected using a Bernstein polynomial fit and referenced to the TSP peak (0.00 ppm) using MestReNova 5.3.2 (MestRelab Research). p-toluenesulfonic acid (Sigma) was utilized as a reference standard to calibrate the formate concentration for quantitative analysis (Shao et al., J. Chromatogr. A, 1138:305-308 (2007)). […]

The subject of series [3] is parental MEF population. As to the kind of experiment: Growth of the parental MEF population. As to conditions: 1.25 mM 2-DG, 100 μM BrPA, 5 mM DCA.
Series [4] relates to MEFs undergoing nuclear reprogramming. The experiment in a line: Reprogramming efficiency by alkaline phosphatase staining. Conditions: 2-DG during reprogramming (media supplemented with 0.25 or 1.25 mM 2DG).
Text: as §1

Consider `O=C(O)C(=O)CBr` [BrPA, 3-bromopyruvic acid], for which the “% SSEA1 positive cells (reprogramming efficiency)” value (“% SSEA1 positive cells” below) in series [1] (100 μM BrPA during reprogramming) is 19.8±1.0 % SSEA1 positive cells. Further, the “Extracellular metabolite profile of treated MEFs” value in series [2] is “consistent with inhibition of glycolysis and stimulation of oxidative metabolism”. Moreover, in series [3], the “Cell growth of parental MEF population” value was “without impairing cell growth”.
Regarding `O=C(O)C(Cl)Cl` [DCA, dichloroacetate], the “% SSEA1 positive cells” value in series [1] (5 mM DCA during reprogramming) stood at 17.3±1.5 % SSEA1 positive cells. Besides, the “Cell growth of parental MEF population” value in series [3] is listed as “without impairing cell growth”.
As to `O=CC[C@@H](O)[C@H](O)[C@H](O)CO` [2-DG, 2-deoxyglucose], in series [1] (1.25 mM 2-DG during reprogramming), the “% SSEA1 positive cells” value was 0.9±0.3 % SSEA1 positive cells. Also, in series [2], the “Extracellular metabolite profile of treated MEFs” value is “consistent with inhibition of glycolysis and stimulation of oxidative metabolism”. Also, the “Induction of the pluripotent marker alkaline phosphatase” value in series [4] was “blunted induction of the pluripotent marker alkaline phosphatase”. Besides, the “Cell growth of parental MEF population” value in series [3] was “without impairing cell growth”.

The record behind these values is US9822343B2, “Methods and materials for obtaining induced pluripotent stem cells” (priority 2011, dated 2017).
